Data as given in PubChem BioAssay AID1918930 (Molecular Pharmacology Branch, DTP, NCI, 2023).

System: 233499-124-R-J3-PDC complex spheroid viability, % test/control
Assay: Anticancer human tumor 233499-124-R-J3-PDC patient-derived colon adenocarcinoma cell line growth inhibition
Settings: for IC50: curve of first compound; for viability, T/C: stronger effect = lower value; active = viability on the fitted dose curve at most 10% of control; inactive = the rest
Outline: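 Multicellular complex spheroids of tumor cells with human endothelial cells (HUVEC) and mesenchymal stem cells; the LSD1 inhibitor iadademstat was combined with standard-of-care or investigational agents. Top concentration at or near clinical Cmax, half-log dilutions; final DMSO ≤0.25%.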

[1] = second compound 0.1 µM, first compound 0.0316 µM
[2] = second compound 0.1 µM, first compound 0.1 µM
[3] = second compound 0.1 µM, first compound 0.316 µM
[4] = second compound 0.1 µM, first compound 1 µM
[5] = second compound 0.1 µM, first compound 3.16 µM
[6] = second compound 0.1 µM, first compound 10 µM
[7] = second compound 0.316 µM, first compound 0.0316 µM
[8] = second compound 0.316 µM, first compound 0.1 µM
[9] = second compound 0.316 µM, first compound 0.316 µM
[10] = second compound 0.316 µM, first compound 1 µM
[11] = second compound 0.316 µM, first compound 3.16 µM
[12] = second compound 0.316 µM, first compound 10 µM
[13] = second compound 1 µM, first compound 0.0316 µM
[14] = second compound 1 µM, first compound 0.1 µM
[15] = second compound 1 µM, first compound 0.316 µM
[16] = second compound 1 µM, first compound 1 µM
[17] = second compound 1 µM, first compound 3.16 µM
[18] = second compound 1 µM, first compound 10 µM
[19] = second compound 3.16 µM, first compound 0.0316 µM
[20] = second compound 3.16 µM, first compound 0.1 µM
[21] = second compound 3.16 µM, first compound 0.316 µM
[22] = second compound 3.16 µM, first compound 1 µM
[23] = second compound 3.16 µM, first compound 3.16 µM
[24] = second compound 3.16 µM, first compound 10 µM
[25] = second compound 10 µM, first compound 0.0316 µM
[26] = second compound 10 µM, first compound 0.1 µM
[27] = second compound 10 µM, first compound 0.316 µM
[28] = second compound 10 µM, first compound 1 µM
[29] = second compound 10 µM, first compound 3.16 µM
[30] = second compound 10 µM, first compound 10 µM
[31] = second compound 0.1 µM, first compound 0.00949 µM
[32] = second compound 0.1 µM, first compound 0.03 µM
[33] = second compound 0.1 µM, first compound 0.0949 µM
[34] = second compound 0.1 µM, first compound 0.3 µM
[35] = second compound 0.316 µM, first compound 0.00949 µM
[36] = second compound 0.316 µM, first compound 0.03 µM
[37] = second compound 0.316 µM, first compound 0.0949 µM
[38] = second compound 0.316 µM, first compound 0.3 µM
[39] = second compound 1 µM, first compound 0.00949 µM
[40] = second compound 1 µM, first compound 0.03 µM
[41] = second compound 1 µM, first compound 0.0949 µM
[42] = second compound 1 µM, first compound 0.3 µM
[43] = second compound 3.16 µM, first compound 0.00949 µM
[44] = second compound 3.16 µM, first compound 0.03 µM
[45] = second compound 3.16 µM, first compound 0.0949 µM
[46] = second compound 3.16 µM, first compound 0.3 µM
[47] = second compound 10 µM, first compound 0.00949 µM
[48] = second compound 10 µM, first compound 0.03 µM
[49] = second compound 10 µM, first compound 0.0949 µM
[50] = second compound 10 µM, first compound 0.3 µM
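Note: spheroids exposed to agents for one week before readout.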

CC1(C)CCC(CN2CCN(c3ccc(C(=O)NS(=O)(=O)c4ccc(NCC5CCOCC5)c([N+](=O)[O-])c4)c(Oc4cnc5[nH]ccc5c4)c3)CC2)=C(c2ccc(Cl)cc2)C1 + NC1CC1c1ccc(-c2cccc(O)c2)cc1
3180 nM: IC50 (second compound 1 µM)
active: viability, T/C [6] 0.86% | viability, T/C [12] 0.83% | viability, T/C [18] 0.7% | viability, T/C [24] 0.57% | viability, T/C [30] 0.43%
2450 nM: IC50 (second compound 0.316 µM)
2270 nM: IC50 (second compound 10 µM)
inactive: viability, T/C [1] 84.1% | viability, T/C [2] 109% | viability, T/C [3] 113% | viability, T/C [4] 107% | viability, T/C [5] 41.1% | viability, T/C [7] 114% | viability, T/C [8] 102% | viability, T/C [9] 100% | viability, T/C [10] 111% | viability, T/C [11] 33.9% | viability, T/C [13] 88.7% | viability, T/C [14] 92% | viability, T/C [15] 97.8% | viability, T/C [16] 102% | viability, T/C [17] 50.2% | viability, T/C [19] 100% | viability, T/C [20] 97.1% | viability, T/C [21] 91.4% | viability, T/C [22] 99.3% | viability, T/C [23] 44.6% | viability, T/C [25] 76.7% | viability, T/C [26] 83.9% | viability, T/C [27] 72.9% | viability, T/C [28] 81.1% | viability, T/C [29] 38.5%
2680 nM: IC50 (second compound 0.1 µM)
2810 nM: IC50 (second compound 3.16 µM)

CC1COCCN1c1cc(C2(S(C)(=N)=O)CC2)nc(-c2ccnc3[nH]ccc23)n1 (stereo not given) + NC1CC1c1ccc(-c2cccc(O)c2)cc1
> 10000 nM: IC50 (second compound 0.1 µM) | IC50 (second compound 0.316 µM) | IC50 (second compound 1 µM)
4430 nM: IC50 (second compound 3.16 µM)
3100 nM: IC50 (second compound 10 µM)
inactive: viability, T/C [1] 110% | viability, T/C [2] 98.1% | viability, T/C [3] 109% | viability, T/C [4] 95.5% | viability, T/C [5] 57% | viability, T/C [6] 65.6% | viability, T/C [7] 105% | viability, T/C [8] 114% | viability, T/C [9] 101% | viability, T/C [10] 87.6% | viability, T/C [11] 60.5% | viability, T/C [12] 69.3% | viability, T/C [13] 95.6% | viability, T/C [14] 92.5% | viability, T/C [15] 93.9% | viability, T/C [16] 87.8% | viability, T/C [17] 59.7% | viability, T/C [18] 52.7% | viability, T/C [19] 108% | viability, T/C [20] 96.3% | viability, T/C [21] 90.3% | viability, T/C [22] 70.1% | viability, T/C [23] 48.6% | viability, T/C [24] 47.1% | viability, T/C [25] 92.2% | viability, T/C [26] 77.5% | viability, T/C [27] 80.6% | viability, T/C [28] 78.2% | viability, T/C [29] 45.3% | viability, T/C [30] 53.8%

CCN(c1cc(-c2ccc(CN3CCOCC3)cc2)cc(C(=O)NCc2c(C)cc(C)[nH]c2=O)c1C)C1CCOCC1 + NC1CC1c1ccc(-c2cccc(O)c2)cc1
inactive: viability, T/C [31] 97.3% | viability, T/C [32] 99.1% | viability, T/C [33] 111% | viability, T/C [34] 115% | viability, T/C (second compound 0.1 µM, first compound 0.949 µM) 98.4% | viability, T/C (second compound 0.1 µM, first compound 3 µM) 51.8% | viability, T/C [35] 117% | viability, T/C [36] 124% | viability, T/C [37] 112% | viability, T/C [38] 129% | viability, T/C (second compound 0.316 µM, first compound 0.949 µM) 98.5% | viability, T/C (second compound 0.316 µM, first compound 3 µM) 50.8% | viability, T/C [39] 97% | viability, T/C [40] 99.7% | viability, T/C [41] 93.7% | viability, T/C [42] 107% | viability, T/C (second compound 1 µM, first compound 0.949 µM) 85% | viability, T/C (second compound 1 µM, first compound 3 µM) 43.4% | viability, T/C [43] 99% | viability, T/C [44] 105% | viability, T/C [45] 90.5% | viability, T/C [46] 80.7% | viability, T/C (second compound 3.16 µM, first compound 0.949 µM) 77.2% | viability, T/C (second compound 3.16 µM, first compound 3 µM) 53.9% | viability, T/C [47] 79.3% | viability, T/C [48] 88.6% | viability, T/C [49] 84.7% | viability, T/C [50] 93.2% | viability, T/C (second compound 10 µM, first compound 0.949 µM) 65.8% | viability, T/C (second compound 10 µM, first compound 3 µM) 38.8%
2500 nM: IC50 (second compound 1 µM)
> 3000 nM: IC50 (second compound 0.1 µM) | IC50 (second compound 0.316 µM) | IC50 (second compound 3.16 µM)
1860 nM: IC50 (second compound 10 µM)

Cn1ncnc1C1c2n[nH]c(=O)c3cc(F)cc(c23)NC1c1ccc(F)cc1 (stereo not given) + NC1CC1c1ccc(-c2cccc(O)c2)cc1
inactive: viability, T/C (second compound 0.1 µM, first compound 0.000316 µM) 106% | viability, T/C (second compound 0.1 µM, first compound 0.001 µM) 105% | viability, T/C (second compound 0.1 µM, first compound 0.00316 µM) 105% | viability, T/C (second compound 0.1 µM, first compound 0.01 µM) 91.2% | viability, T/C [1] 95.4% | viability, T/C [2] 84.4% | viability, T/C (second compound 0.316 µM, first compound 0.000316 µM) 89.1% | viability, T/C (second compound 0.316 µM, first compound 0.001 µM) 108% | viability, T/C (second compound 0.316 µM, first compound 0.00316 µM) 128% | viability, T/C (second compound 0.316 µM, first compound 0.01 µM) 98.1% | viability, T/C [7] 102% | viability, T/C [8] 89.3% | viability, T/C (second compound 1 µM, first compound 0.000316 µM) 85.7% | viability, T/C (second compound 1 µM, first compound 0.001 µM) 83.1% | viability, T/C (second compound 1 µM, first compound 0.00316 µM) 87.5% | viability, T/C (second compound 1 µM, first compound 0.01 µM) 74.2% | viability, T/C [13] 89.5% | viability, T/C [14] 88.5% | viability, T/C (second compound 3.16 µM, first compound 0.000316 µM) 89.9% | viability, T/C (second compound 3.16 µM, first compound 0.001 µM) 96% | viability, T/C (second compound 3.16 µM, first compound 0.00316 µM) 90.2% | viability, T/C (second compound 3.16 µM, first compound 0.01 µM) 76.5% | viability, T/C [19] 76.7% | viability, T/C [20] 78.5% | viability, T/C (second compound 10 µM, first compound 0.000316 µM) 74.7% | viability, T/C (second compound 10 µM, first compound 0.001 µM) 80.6% | viability, T/C (second compound 10 µM, first compound 0.00316 µM) 69.7% | viability, T/C (second compound 10 µM, first compound 0.01 µM) 70.3% | viability, T/C [25] 58.7% | viability, T/C [26] 58.8%
> 100 nM: IC50 (second compound 0.1 µM) | IC50 (second compound 0.316 µM) | IC50 (second compound 1 µM) | IC50 (second compound 3.16 µM) | IC50 (second compound 10 µM)

Nc1ncn(C2CC(O)C(CO)S2)c(=O)n1 (stereo not given) + NC1CC1c1ccc(-c2cccc(O)c2)cc1
124 nM: IC50 (second compound 1 µM)
100 nM: IC50 (second compound 0.1 µM)
128 nM: IC50 (second compound 3.16 µM)
inactive: viability, T/C (second compound 0.1 µM, first compound 0.000949 µM) 95.5% | viability, T/C (second compound 0.1 µM, first compound 0.003 µM) 94.1% | viability, T/C [31] 117% | viability, T/C [32] 101% | viability, T/C [33] 51.2% | viability, T/C [34] 25.6% | viability, T/C (second compound 0.316 µM, first compound 0.000949 µM) 108% | viability, T/C (second compound 0.316 µM, first compound 0.003 µM) 96.7% | viability, T/C [35] 114% | viability, T/C [36] 114% | viability, T/C [37] 51.2% | viability, T/C [38] 31.5% | viability, T/C (second compound 1 µM, first compound 0.000949 µM) 85.7% | viability, T/C (second compound 1 µM, first compound 0.003 µM) 96.4% | viability, T/C [39] 103% | viability, T/C [40] 87% | viability, T/C [41] 57.2% | viability, T/C [42] 26.7% | viability, T/C (second compound 3.16 µM, first compound 0.000949 µM) 81% | viability, T/C (second compound 3.16 µM, first compound 0.003 µM) 86.9% | viability, T/C [43] 85.8% | viability, T/C [44] 89.1% | viability, T/C [45] 58.4% | viability, T/C [46] 26% | viability, T/C (second compound 10 µM, first compound 0.000949 µM) 80.2% | viability, T/C (second compound 10 µM, first compound 0.003 µM) 83.4% | viability, T/C [47] 81.5% | viability, T/C [48] 83.8% | viability, T/C [49] 45% | viability, T/C [50] 34.7%
81.5 nM: IC50 (second compound 10 µM)
102 nM: IC50 (second compound 0.316 µM)
